# In US20050256134A1, “Use of creatine analogues and creatine kinase modulators for the prevention and treatment of glucose metabolic disorders” (AVICENA GROUP, INC., priority 1995, published 2005):
# Tested on: female Fisher 344 rats bearing rat mammary adenocarcinoma 13762
# Experiment: Effect of creatine compounds on glucose levels in rats bearing tumors (i.v., days 4-8 and 14-18)
# Assay type: in vivo
# Settings: for Glucose Levels: i.v. days 4-8 and 14-18
# Procedure: Two creatine compounds, creatine phosphate and cyclocreatine, were injected intravenously into tumor bearing rats, and the level of glucose in the rats was monitored. Beta guanidino propionic acid, also was administered. […] There was no specific reason for using tumor bearing rats, except convenience because the antitumor activity of these compounds also was being studied. The presence of the tumors should not have any effect on the ability of these compounds to regulate glucose levels. The rats carrying the tumors were described by us previously (see, […] et al., Cancer Chemother. Pharmacol, 35: 411-416, 1995). The schedule and dose selected in these experiments was based on prior experience working with this class of compounds as anticancer or antiviral chemotherapeutic agents. The rat mammary adenocarcinoma 13762 was implanted in the female Fisher 344 rats on day zero. The creatine compounds were administered intravenously on days 4-8 and days 14-18. The amounts used were 1 gm/kg of cyclocreatine, 0.93 gm/kg for beta guanidino propionic acid, and 2.32 gm/kg for creatine phosphate. […] Plasma glucose levels were measured at around 11 a.m., by taking a drop of blood from the animals and testing glucose levels using a commercial kit ([…] bG, Boehringer Mannheim). For animals that were treated with drugs, the treatment was around 9 a.m., and bleeding was also at around 11 a.m. To examine more closely what occurred in the above two experiments, the average readings of glucose levels from experiments one and two were taken in the following time intervals post drug treatment: Days 2-3, Days 4-8, Days 8-12, Days 14-18, Day 15 and Days 19-22.
compound,measurement,setting,value
NC1=NCCN1CC(=O)O [cyclocreatine],Glucose Levels,Example 1,two drops in glucose levels at the time of drug administration
same,Glucose Levels,Example 2 (repeat),induced a drop in the level of glucose after each administration
same,drop in glucose level,"average of experiments one and two, day 15",≤ 50%
